The source of these data is article PMC7655067, “Crystal structure-guided design of berberine-based novel chitinase inhibitors” (Journal of Enzyme Inhibition and Medicinal Chemistry, 2020).

Where a name gives a salt, the structure may show the parent alone. Read-outs that look alike come from different tables or passages of the source.

In series [1] the target is T1, SmChiB (Serratia marcescens, UniProt P11797).
T1 construct: made in house; host or cells: Escherichia coli BL21 (DE3)
T1 sequence (P11797 42-499): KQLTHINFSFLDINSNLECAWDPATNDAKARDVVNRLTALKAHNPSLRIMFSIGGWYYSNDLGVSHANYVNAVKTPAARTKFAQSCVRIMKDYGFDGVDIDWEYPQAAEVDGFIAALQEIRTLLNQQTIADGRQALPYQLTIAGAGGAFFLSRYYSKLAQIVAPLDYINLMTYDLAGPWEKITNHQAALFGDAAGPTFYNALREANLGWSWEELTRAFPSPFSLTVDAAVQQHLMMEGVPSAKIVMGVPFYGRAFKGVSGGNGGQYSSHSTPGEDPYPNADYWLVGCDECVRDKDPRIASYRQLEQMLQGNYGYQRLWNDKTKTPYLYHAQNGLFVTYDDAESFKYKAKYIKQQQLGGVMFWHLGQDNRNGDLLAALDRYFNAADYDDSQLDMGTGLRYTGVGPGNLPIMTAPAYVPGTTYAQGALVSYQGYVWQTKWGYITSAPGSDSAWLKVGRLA
Briefly: biochemical. The format is biochemical. The procedure: (§1) ChiB from S. marcescens was expressed in Escherichia coli BL21 (DE3). The other GH18 chitinases including the catalytic domains of OfChtI from O. furnacalis, human HsCht and human hAMCase were expressed in P. pastoris GS115. All the proteins were purified by immobilised metal affinity chromatography (IMAC) as described previously. The purities of the target proteins were analysed by SDS-PAGE followed by Coomassie Brilliant Blue R-250 staining.
(§2) The activity of GH18 chitinases were determined using MU-(GlcNAc)2 as a substrate. The reaction mixtures used for determining the inhibitor activity of compounds consisted of 100 μL of 20 nM enzyme, 4 μM MU-(GlcNAc)2, 1 or 10 μM inhibitors and 2% DMSO in the buffer (20 mM sodium phosphate, pH 6.0, for SmChiB, OfChtI and HsCht; 20 mM sodium citrate, pH 5.2, for hAMCase). The reaction in the absence of compounds was used as a positive control. After incubating at 30 °C for 25 min, an equal volume of 0.5 M sodium carbonate was added to the reaction mixtures to terminate the reaction, and the fluorescence produced by the released MU was quantified using a Varioskan Flash microplate reader (Thermo Fisher Scientific, Waltham, MA), with excitation and emission wavelengths of 360 and 450 nm, respectively. Experiments were performed in triplicate. […] The Ki values and types of inhibition were determined by linear fitting of the data in Dixon plots.

The target in series [2] is T2, HsCht (Homo sapiens, UniProt Q13231).
T2 construct: including the catalytic domains of OfChtI from O. furnacalis, human HsCht and human hAMCase; made in house; host or cells: Pichia pastoris GS115
T2 sequence (Q13231 22-388 limits assumed): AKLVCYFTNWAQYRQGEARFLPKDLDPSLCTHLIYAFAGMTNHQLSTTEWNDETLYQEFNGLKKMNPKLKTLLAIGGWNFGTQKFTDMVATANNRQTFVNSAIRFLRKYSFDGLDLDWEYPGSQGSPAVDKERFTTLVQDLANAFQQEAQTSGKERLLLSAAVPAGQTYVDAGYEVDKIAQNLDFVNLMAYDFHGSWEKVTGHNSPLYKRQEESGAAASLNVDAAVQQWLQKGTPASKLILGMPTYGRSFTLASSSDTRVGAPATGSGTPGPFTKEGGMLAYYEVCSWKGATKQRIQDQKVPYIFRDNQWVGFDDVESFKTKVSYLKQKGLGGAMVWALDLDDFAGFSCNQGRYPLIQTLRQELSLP
Briefly: Inhibitory activity assay with MU-(GlcNAc)2, Ki by Dixon plots. The format is biochemical. The settings on record: pH 6.0. The procedure: as §1, §2

Series [3] concerns the target T3, OfChtI (Ostrinia furnacalis, UniProt Q2V6H4). The series is described as above. The format is biochemical. The settings on record: for Ki: pH 6.0, Dixon plots. The procedure: as §1, §2
For series [4], the target named is T4, hAMCase (Homo sapiens, UniProt Q9BZP6).
T4 construct: including the catalytic domains of OfChtI from O. furnacalis, human HsCht and human hAMCase; made in house; host or cells: Pichia pastoris GS115
T4 sequence (Q9BZP6 22-390 limits assumed): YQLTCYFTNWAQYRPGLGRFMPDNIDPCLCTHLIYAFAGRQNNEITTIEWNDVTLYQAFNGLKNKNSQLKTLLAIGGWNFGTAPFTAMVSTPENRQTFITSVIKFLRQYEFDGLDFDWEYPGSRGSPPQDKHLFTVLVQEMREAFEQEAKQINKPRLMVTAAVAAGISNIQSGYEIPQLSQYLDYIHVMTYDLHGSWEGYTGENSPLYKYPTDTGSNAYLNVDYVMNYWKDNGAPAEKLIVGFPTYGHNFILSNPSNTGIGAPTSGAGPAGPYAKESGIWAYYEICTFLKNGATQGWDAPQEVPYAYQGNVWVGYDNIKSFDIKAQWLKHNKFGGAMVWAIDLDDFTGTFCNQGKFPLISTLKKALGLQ
The description is as above. Format: biochemical. Conditions: pH 5.2. The procedure: as §1, §2

Series [5] deals with T1, SmChiB. Nature of the series: Tryptophan fluorescence quenching, Kd by modified Stern-Volmer equation. The format is binding. The procedure: (§3) Tryptophan fluorescence (295 nm excitation) was measured at 25 °C from 300 to 400 nm with a Varioskan Flash microplate reader using excitation and emission band passes of 5 nm. Fluorescence quenching experiments were performed in a 200 μL mixture containing 1 μM protein in the buffer (20 mM sodium phosphate, pH 6.0, for SmChiB, OfChtI and HsCht; 20 mM sodium citrate, pH 5.2, for hAMCase), and by the successive addition of aliquots of compounds stock solution. Since the crystal structure confirmed that berberine binding to SmChiB in a 1:1 ratio, the dissociation constant Kd were then determined using the modified Stern-Volmer equation[35]^,[36]. […]

Series [6] addresses T3, OfChtI. The description is as above. Format: binding. The procedure:
as §3

Series [7] concerns the target T2, HsCht. The description is as above. The format is binding. Conditions: pH 6.0. The procedure: (§4) Fluorescence quenching experiments were performed in a 200 μL mixture containing 1 μM protein in the buffer (20 mM sodium phosphate, pH 6.0, for SmChiB, OfChtI and HsCht; 20 mM sodium citrate, pH 5.2, for hAMCase), and by the successive addition of aliquots of compounds stock solution.

Series [8] has as its target T4, hAMCase. The description is as above. Format: binding. Conditions: pH 5.2. The procedure: as §4
For series [9], the target named is T3, OfChtI. The arrangement: method as in PMID 30135205. Conditions: cited from earlier work.
The target in series [10] is T2, HsCht. The arrangement: method as in PMID 30135205. The settings on record: cited from earlier work.
Series [11] deals with T4, hAMCase. The arrangement: method as in PMID 30135205. The settings on record: cited from earlier work.
Where [12] appears, read: SmChiB, pH 6.0, Dixon plots, read-out: Ki.
Where [13] appears, read: SmChiB, tryptophan fluorescence quenching, pH 6.0, read-out: Kd.

T3 sequence (Q2V6H4 entry or part of it): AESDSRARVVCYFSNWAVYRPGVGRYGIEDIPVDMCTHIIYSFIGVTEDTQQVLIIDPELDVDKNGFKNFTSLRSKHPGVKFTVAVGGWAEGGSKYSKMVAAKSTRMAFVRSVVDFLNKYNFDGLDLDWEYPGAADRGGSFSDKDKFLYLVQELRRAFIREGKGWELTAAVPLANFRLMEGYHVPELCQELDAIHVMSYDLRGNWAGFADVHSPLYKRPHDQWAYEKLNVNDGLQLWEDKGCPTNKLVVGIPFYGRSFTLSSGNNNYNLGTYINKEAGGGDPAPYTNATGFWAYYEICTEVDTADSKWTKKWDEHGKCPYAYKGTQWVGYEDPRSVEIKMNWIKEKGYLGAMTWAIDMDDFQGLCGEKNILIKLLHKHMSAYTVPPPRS

For the compound `COC(=O)CCC(=O)Oc1c(OC)ccc2cc3[n+](cc12)CCc1cc2c(cc1-3)OCO2` (as salt: chloride) [4a], the melting point – broadly, the temperature, or range, at which the solid turns liquid – is 192 °C (dec.).
With `COC(=O)CCC(=O)Oc1c(OC)ccc2cc3[n+](cc12)CCc1cc2c(cc1-3)OCO2` [4a], the Ki (as a rule, a measure of affinity in units of concentration, obtained from inhibition or displacement) at SmChiB [1] (setting [12]) worked out at 680 nM; at HsCht [2] it was 8.23 µM; on OfChtI [3], 6.43 µM; at hAMCase [4], 7.43 µM. The Kd (commonly the concentration at which binding is half-saturated) at SmChiB [5] (setting [13]) amounted to 1120 nM.
For `COc1ccc2cc3[n+](cc2c1OC(=O)c1ccccc1)CCc1cc2c(cc1-3)OCO2` [4b], in that order: 2360 nM, 11.4 µM, 7.28 µM, 4.62 µM and 2990 nM.
For `COc1ccc2cc3[n+](cc2c1OC(=O)c1ccc(F)nc1)CCc1cc2c(cc1-3)OCO2` [4c], the results for the Ki on SmChiB [1] (setting [12]) and on OfChtI [3] were 150 nM and 3.03 µM, respectively. In addition, at OfChtI [3] (from Ki values), the “inhibitory activity increase compared to berberine” value turned out to be 7.5 fold. For the same compound, the Kd worked out at 2.58 µM at OfChtI [6] (OfChtI, tryptophan fluorescence quenching, pH 6.0, read-out: Kd) and 190 nM at SmChiB [5] (setting [13]).
In the case of `COc1ccc2cc3[n+](cc2c1OC)CCc1cc2c(cc1-3)OCO2` [Berberine, berberine], the Ki at SmChiB [1] is 11800 nM; at OfChtI [9], 23 µM; at HsCht [10] it was 19 µM; on hAMCase [11] it was 65 µM. Besides, the type of inhibition entry was “competitive inhibitor” on SmChiB [1] (SmChiB, Dixon plots); “competitive inhibitor” at OfChtI [9]; “competitive inhibitor” on HsCht [10]; “competitive inhibitor” on hAMCase [11]. Further, the Kd at OfChtI [6] was determined as 20.6 µM; on SmChiB [5], 12000 nM; at HsCht [7], 21.9 µM; at hAMCase [8], 58 µM.
